For 68 compounds, IC50 results are on record in the Kinase Knowledgebase extract (Sharma et al. 2016).

Bounds are passed on as bounds.

Sequence of PIK3CG (human) (P48736 whole entry, looked up): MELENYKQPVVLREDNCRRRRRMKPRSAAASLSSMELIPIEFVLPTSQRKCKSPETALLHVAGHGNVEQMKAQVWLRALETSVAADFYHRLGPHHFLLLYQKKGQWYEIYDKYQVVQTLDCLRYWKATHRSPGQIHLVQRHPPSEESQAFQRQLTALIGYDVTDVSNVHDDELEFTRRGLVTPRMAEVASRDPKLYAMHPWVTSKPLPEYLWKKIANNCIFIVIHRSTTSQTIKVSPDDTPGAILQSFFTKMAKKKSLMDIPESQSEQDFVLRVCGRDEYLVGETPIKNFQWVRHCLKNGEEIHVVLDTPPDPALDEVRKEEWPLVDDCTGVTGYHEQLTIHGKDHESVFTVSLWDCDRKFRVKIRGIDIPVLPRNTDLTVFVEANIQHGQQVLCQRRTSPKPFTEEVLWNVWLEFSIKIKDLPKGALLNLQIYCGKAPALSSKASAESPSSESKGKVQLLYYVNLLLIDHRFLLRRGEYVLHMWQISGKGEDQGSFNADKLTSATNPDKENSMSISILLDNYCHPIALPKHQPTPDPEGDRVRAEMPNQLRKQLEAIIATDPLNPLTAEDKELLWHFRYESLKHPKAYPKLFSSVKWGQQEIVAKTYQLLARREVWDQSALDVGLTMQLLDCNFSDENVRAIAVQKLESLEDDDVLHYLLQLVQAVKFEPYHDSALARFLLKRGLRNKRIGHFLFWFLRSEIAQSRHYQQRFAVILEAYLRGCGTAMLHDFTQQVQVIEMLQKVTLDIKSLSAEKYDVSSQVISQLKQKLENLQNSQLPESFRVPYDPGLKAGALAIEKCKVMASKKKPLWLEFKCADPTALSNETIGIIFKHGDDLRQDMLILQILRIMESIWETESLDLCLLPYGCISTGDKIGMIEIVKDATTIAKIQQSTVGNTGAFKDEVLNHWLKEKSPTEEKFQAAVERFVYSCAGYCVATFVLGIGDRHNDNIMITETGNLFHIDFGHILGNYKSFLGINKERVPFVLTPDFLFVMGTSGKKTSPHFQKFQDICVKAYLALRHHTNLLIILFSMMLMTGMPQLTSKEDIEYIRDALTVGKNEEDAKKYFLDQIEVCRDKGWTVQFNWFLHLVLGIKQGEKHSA

This assay concerns the target PIK3CG (human) (UniProt P48736). In words: Inhibition of PIK3CG Kinase Activity.
Regarding `CC(=O)Nc1nc2c(s1)-c1c(c(C3CC3)nn1-c1ccc(C(=O)N(C)[C@H]3CC[C@@H](N4CCCCC4)CC3)cc1Cl)CC2`, the IC50 (in general, the point on the concentration scale where inhibition reaches its midpoint) was < 600 nM.

On to `CC(=O)Nc1nc2c(s1)-c1c(c(C3CC3)nn1-c1ccc(C(=O)N(C)[C@H]3CC[C@@H](N(C)CC4CC4)CC3)c(F)c1)CC2`, for which the IC50 was < 600 nM.

In the case of `CC(=O)Nc1nc2c(s1)-c1c(c(C3CC3)nn1-c1ccc(C(=O)N(C)C3CCC(N4CCCCC4)CC3)c(F)c1)CC2` (stereo not drawn), the IC50 was < 600 nM.

In the case of `CC(=O)Nc1nc2c(s1)-c1c(c(C3CC3)nn1-c1ccc(C(=O)NC3CCN(C4CCOCC4)CC3)cc1F)CC2`, the half-maximal inhibitory concentration (IC50) was < 600 nM.

`CC(=O)Nc1nc2c(s1)-c1c(c(C3CC3)nn1-c1ccc(C(=O)N(C)[C@H]3CCN(C4CCCCC4)C3)c(F)c1)CC2`: the concentration for half-maximal inhibition (IC50) was < 600 nM.

Consider `CC(=O)Nc1nc2c(s1)-c1c(c(C3CCCC3)nn1-c1ccc(C(=O)N[C@H]3CC[C@@H](N4CCCC4)CC3)cc1Cl)CC2`, for which the half-inhibitory concentration (IC50) was < 600 nM.

Turning to `CC(=O)Nc1nc2c(s1)-c1c(c(C3CC3)nn1-c1ccc(C(=O)N(C)[C@H]3CC[C@@H](N(C)CC4CC4)CC3)cc1F)CC2`, the concentration for half-maximal inhibition (IC50) was < 600 nM.

On to `CC(=O)Nc1nc2c(s1)-c1c(c(C3CC3)nn1-c1ccc(C(=O)N[C@H]3CN4CCC3CC4)c(Cl)c1)CC2`, for which the IC50 is < 600 nM.

As to `CC(=O)Nc1nc2c(s1)-c1c(c(C3CCCC3)nn1-c1ccc(C(=O)N(C)[C@H]3CC[C@@H](N4CCCC4)CC3)cc1Cl)CC2`, the IC50 is < 600 nM.

For `CC(=O)Nc1nc2c(s1)-c1c(c(C3CC3)nn1C1CCC(C(=O)NC3CCN(C4CCCC4)CC3)CC1)CC2` (stereo not drawn), the concentration for half-maximal inhibition (IC50) is < 600 nM.

In the case of `CC(=O)Nc1nc2c(s1)-c1c(c(C3CC3)nn1-c1ccc(C(=O)N[C@H]3CC[C@@H](N4CCCCC4)CC3)cc1Cl)CC2`, the IC50 is < 600 nM.

`CC(=O)Nc1nc2c(s1)-c1c(c(C3CC3)nn1-c1ccc(C(=O)N(C)C[C@H]3CCN(C4CCCC4)C3)c(Cl)c1)CC2`: the IC50 is < 600 nM.

For `CC(=O)Nc1nc2c(s1)-c1c(c(C3CC3)nn1-c1ccc(C(=O)NC3CCN(CC4CCCCC4)CC3)cc1F)CC2`, the IC50 is < 600 nM.

Take `CC(=O)Nc1nc2c(s1)-c1c(c(C3CC3)nn1-c1ccc(C(=O)NC3CCN(C4CCOCC4)CC3)c(F)c1)CC2`: the IC50 was < 600 nM.

Take `COc1cc(-n2nc(C3CC3)c3c2-c2sc(NC(C)=O)nc2CC3)ccc1C(=O)N1CCC(N(C)C2CCCC2)CC1`: the IC50 is < 600 nM.

With `CC(=O)Nc1nc2c(s1)-c1c(c(C3CC3)nn1-c1ccc(C(=O)N(C)CC3CCN(C4CCCC4)CC3)c(Cl)c1)CC2`, the IC50 was < 600 nM.

As to `CC(=O)Nc1nc2c(s1)-c1c(c(C3CC3)nn1C1CCC(C(=O)NC3CCCCC3)CC1)CC2` (stereo not drawn), the 50% inhibitory concentration (IC50) was < 600 nM.

Take `CC(=O)Nc1nc2c(s1)-c1c(c(C3CC3)nn1-c1ccc(C(=O)N3CCC(N4CCCC4)CC3)cc1Cl)CC2`: the 50% inhibitory concentration (IC50) was < 600 nM.

`CCCN1CCC(NC(=O)c2ccc(-n3nc(C4CC4)c4c3-c3sc(NC(C)=O)nc3CC4)c(C)c2)CC1`: the IC50 was < 600 nM.

On to `CC(=O)Nc1nc2c(s1)-c1c(c(C3CCC3)nn1-c1ccc(C(=O)NC3CCN(C4CCOCC4)CC3)cc1Cl)CC2`, for which the IC50 was < 600 nM.

As to `CC(=O)Nc1nc2c(s1)-c1c(c(C3CC3)nn1-c1ccc(C(=O)N[C@@H]3CN4CCC3CC4)c(Cl)c1)CC2`, the 50% inhibitory concentration (IC50) is < 600 nM.

On to `CC(=O)Nc1nc2c(s1)-c1c(c(C3CC3)nn1-c1ccc(C(=O)N[C@@H]3CCN(C4CCCCC4)C3)c(C)c1)CC2`, for which the concentration for half-maximal inhibition (IC50) was < 600 nM.

Take `CC(=O)Nc1nc2c(s1)-c1c(c(C3CC3)nn1-c1ccccc1C)CC2`: the IC50 is < 600 nM.

As to `CNC(=O)c1ccc(-n2nc(C3(C)CC3)c3c2-c2sc(NC(C)=O)nc2CC3)c(Cl)c1`, the IC50 is < 600 nM.

As to `CC(=O)Nc1nc2c(s1)-c1c(c(C3CC3)nn1-c1ccc(C(=O)N[C@H]3CC[C@@H](N(C)CC4CC4)CC3)cc1Cl)CC2`, the IC50 is < 600 nM.

For the compound `CC(=O)Nc1nc2c(s1)-c1c(c(C3CC3)nn1-c1ccc(C(=O)N(C)[C@H]3CC[C@@H](N(C)CC4CCCC4)CC3)c(C)c1)CC2`, the IC50 is < 600 nM.

In the case of `CC(=O)Nc1nc2c(s1)-c1c(c(C3CC3)nn1C1CCC(C(=O)NC3CCN(CC4CCCC4)CC3)CC1)CC2` (stereo not drawn), the half-maximal inhibitory concentration (IC50) was < 600 nM.

As for `CC(=O)Nc1nc2c(s1)-c1c(c(C3CC3)nn1-c1ccc(C(=O)N[C@@H]3CCN(C4CCCC4)C3)cc1F)CC2`, the IC50 is < 600 nM.

Regarding `CC(=O)Nc1nc2c(s1)-c1c(c(C3CC3)nn1-c1ccc(C(=O)N[C@H]3CC[C@H](C(N)=O)CC3)cc1Cl)CC2`, the IC50 was < 600 nM.

In the case of `CC(=O)Nc1nc2c(s1)-c1c(c(C3CC3)nn1-c1ccc(C(=O)NC3CCN(C4CCOCC4)CC3)c(Cl)c1)CC2`, the concentration for half-maximal inhibition (IC50) is < 600 nM.

With `CC(=O)Nc1nc2c(s1)-c1c(c(C3CC3)nn1-c1ccc(C(=O)NC3CCN(CC4CCCC4)CC3)cc1Cl)CC2`, the IC50 is < 600 nM.

Turning to `CC(=O)Nc1nc2c(s1)-c1c(c(C3CC3)nn1C1CCC(C(=O)N[C@H]3CC[C@H](N4CCCC4)CC3)CC1)CC2` (stereo partly drawn), the IC50 is < 600 nM.

As to `CC(=O)Nc1nc2c(s1)-c1c(c(C3CC3)nn1-c1ccc(C(=O)N[C@H]3CCN(C4CCCCC4)C3)cc1F)CC2`, the 50% inhibitory concentration (IC50) was < 600 nM.

In the case of `CC(=O)Nc1nc2c(s1)-c1c(c(C3CC3)nn1-c1ccc(C(=O)N(C)C3CCN(C4CCCC4)CC3)c(C)c1)CC2`, the half-inhibitory concentration (IC50) was < 600 nM.

As for `CC(=O)Nc1nc2c(s1)-c1c(c(C3CC3)nn1-c1ccc(C(=O)N[C@H]3CC[C@@H](N4CCOCC4)CC3)cc1F)CC2`, the IC50 is < 600 nM.

For the compound `CC(=O)Nc1nc2c(s1)-c1c(c(C3CC3)nn1-c1ccc(C(=O)N(C)CC3CCN(CC4CCCC4)CC3)c(Cl)c1)CC2`, the IC50 was < 600 nM.

For the compound `CC(=O)Nc1nc2c(s1)-c1c(c(C3CC3)nn1-c1ccc(C(=O)NCC3CCN(CC4CCCC4)CC3)c(Cl)c1)CC2`, the IC50 was < 600 nM.

In the case of `CC(=O)Nc1nc2c(s1)-c1c(c(C3CC3)nn1-c1ccc(C(=O)NC3CCN(C4CCCCC4)CC3)c(C)c1)CC2`, the half-maximal inhibitory concentration (IC50) was < 600 nM.

For the compound `CC(=O)Nc1nc2c(s1)-c1c(c(C3CC3)nn1-c1ccc(C(=O)N3CC[C@@H](CN4CCCC4)C3)c(Cl)c1)CC2`, the IC50 was < 600 nM.

Regarding `CC(=O)Nc1nc2c(s1)-c1c(c(C3CC3)nn1-c1ccc(NC(=O)C3CCN(C4CCCC4)CC3)cc1Cl)CC2`, the IC50 is < 600 nM.

Turning to `CC(=O)Nc1nc2c(s1)-c1c(c(C3CC3)nn1-c1ccc(C(=O)N[C@@H]3CCN(C4CCCC4)C3)cc1Cl)CC2`, the concentration for half-maximal inhibition (IC50) was < 600 nM.

Regarding `CC(=O)Nc1nc2c(s1)-c1c(c(C3CC3)nn1-c1ccc(C(=O)N[C@H]3CC[C@@H](N4CCOCC4)CC3)c(F)c1)CC2`, the IC50 is < 600 nM.

As to `CC(=O)Nc1nc2c(s1)-c1c(c(C3CC3)nn1-c1ccc(C(=O)NC3CCN(C4CCOCC4)CC3)cc1C)CC2`, the half-maximal inhibitory concentration (IC50) is < 600 nM.

Regarding `CNC(=O)Cc1ccc(-n2nc(C3CC3)c3c2-c2sc(NC(C)=O)nc2CC3)c(Cl)c1`, the 50% inhibitory concentration (IC50) was < 600 nM.

As to `CC(=O)Nc1nc2c(s1)-c1c(c(C3CC3)nn1-c1ccc(NCC3CCCCC3)cc1Cl)CC2`, the IC50 is < 600 nM.

As to `CC(=O)Nc1nc2c(s1)-c1c(c(C3CC3)nn1-c1ccc(C(=O)N(C)[C@@H]3CCN(CC4CCCC4)C3)cc1C)CC2`, the IC50 is < 600 nM.

With `CC(=O)Nc1nc2c(s1)-c1c(c(C3CC3)nn1-c1ccc(C(=O)NC3CCN(C)CC3)cc1Cl)CC2`, the half-maximal inhibitory concentration (IC50) is < 600 nM.

In the case of `CC(=O)Nc1nc2c(s1)-c1c(c(C3CC3)nn1-c1ccc(C(=O)NC3CCN(C4CCCC4)CC3)cc1C)CC2`, the half-inhibitory concentration (IC50) is < 600 nM.

For `CC(=O)Nc1nc2c(s1)-c1c(c(C3CC3)nn1-c1ccc(C(=O)N(C)Cc3ccncc3)cc1Cl)CC2`, the IC50 is < 600 nM.

Turning to `CC(=O)Nc1nc2c(s1)-c1c(c(C3CC3)nn1-c1ccc(C(=O)N[C@@H]3CCN(C4CCCCC4)C3)cc1Cl)CC2`, the IC50 was < 600 nM.

Consider `CCCCN1CCN(C(=O)N2CCC(n3nc(C4CC4)c4c3-c3sc(NC(C)=O)nc3CC4)CC2)CC1`, for which the 50% inhibitory concentration (IC50) was < 600 nM.

Consider `CC(=O)Nc1nc2c(s1)-c1c(c(C3CC3)nn1-c1ccc(C(=O)N(C)C3CCN(C)CC3)cc1Cl)CC2`, for which the IC50 is < 600 nM.

For `CC(=O)Nc1nc2c(s1)-c1c(c(C3CC3)nn1-c1ccc(C(=O)NC3CCN(CC4CCCC4)CC3)c(C)c1)CC2`, the IC50 is < 600 nM.

Take `CC(=O)Nc1nc2c(s1)-c1c(c(C3CC3)nn1-c1ccc(C(=O)NCC3CCN(C4CCCC4)CC3)c(Cl)c1)CC2`: the 50% inhibitory concentration (IC50) is < 600 nM.

On to `CC(=O)Nc1nc2c(s1)-c1c(c(C3CC3)nn1-c1ccc(C(=O)N(C)C3CCN(C4CCCC4)CC3)cc1Cl)CC2`, for which the concentration for half-maximal inhibition (IC50) was < 600 nM.

Take `CC(=O)Nc1nc2c(s1)-c1c(c(C3(C)CC3)nn1-c1ccc(C(=O)NC3CCN(C(C)C)CC3)cc1Cl)CC2`: the half-maximal inhibitory concentration (IC50) was < 600 nM.

As to `CC(=O)Nc1nc2c(s1)-c1c(c(C3CC3)nn1-c1ccc(C(=O)N[C@H]3CC[C@@H](N(C)CC4CCCC4)CC3)cc1F)CC2`, the half-inhibitory concentration (IC50) is < 600 nM.

As to `CCCN1CCC(NC(=O)c2ccc(-n3nc(C4CC4)c4c3-c3sc(NC(C)=O)nc3CC4)c(Cl)c2)CC1`, the half-inhibitory concentration (IC50) is < 600 nM.

As for `CC(=O)Nc1nc2c(s1)-c1c(c(C3CC3)nn1-c1ccc(C(=O)N[C@@H]3CCN(CC4CCCC4)C3)c(Cl)c1)CC2`, the IC50 was < 600 nM.

For the compound `CCCN1CCC(C(=O)N2CCC(n3nc(C4CC4)c4c3-c3sc(NC(C)=O)nc3CC4)CC2)CC1`, the 50% inhibitory concentration (IC50) was < 600 nM.

For `CC(=O)Nc1nc2c(s1)-c1c(c(C3CC3)nn1-c1ccc(NCC3CCN(C4CCCC4)CC3)cc1Cl)CC2`, the 50% inhibitory concentration (IC50) was < 600 nM.

Turning to `CC(=O)Nc1nc2c(s1)-c1c(c(C3CC3)nn1-c1ccc(C(=O)N[C@H]3CC[C@@H](N4CCCCC4)CC3)c(F)c1)CC2`, the IC50 was < 600 nM.

Take `CC(=O)Nc1nc2c(s1)-c1c(c(C3CCC3)nn1-c1ccccc1Cl)CC2`: the IC50 was < 600 nM.

As to `CC(=O)Nc1nc2c(s1)-c1c(c(C3CC3)nn1-c1ccc(C(=O)N(C)[C@@H]3CCN(C4CCCC4)C3)cc1F)CC2`, the 50% inhibitory concentration (IC50) was < 600 nM.

Turning to `CC(=O)Nc1nc2c(s1)-c1c(c(C3CC3)nn1-c1ccc(C(=O)N(C)C3CCC(N(C)CC4CCCC4)CC3)c(F)c1)CC2` (stereo not drawn), the 50% inhibitory concentration (IC50) is < 600 nM.

For the compound `CC(=O)Nc1nc2c(s1)-c1c(c(C3CC3)nn1-c1ccc(C(=O)N(C)[C@H]3CC[C@@H](N4CCCC4)CC3)cc1C)CC2`, the IC50 was < 600 nM.

`CC(=O)Nc1nc2c(s1)-c1c(c(C3CC3)nn1-c1ccc(C(=O)NC3CCN(C4CCCC4)CC3)c(F)c1)CC2`: the concentration for half-maximal inhibition (IC50) is < 600 nM.

For the compound `CC(=O)Nc1nc2c(s1)-c1c(c(C3CC3)nn1-c1ccc(C(=O)N[C@H]3CC[C@@H](N4CCCCC4)CC3)cc1F)CC2`, the half-maximal inhibitory concentration (IC50) was < 600 nM.
